Measurements as given in patent US20200397817A1, “METHOD FOR PREDICTING AND MODULATING SUSCEPTIBILITY OF CANCER CELL TO PROGRAMMED CELL DEATH” (SHIEH, Darbin, priority 2017, published 2020).

Legend:
[1] = test system: ZVI sensitive OEC-M1 cells; test: Cell survival assay, ZVI@CMC NPs plus ROS scavenger, OEC-M1; type: cell-based; details: 48 h, FIG. 4; for cell viability recovered as compared with ZVI@CMC NPs alone: ROS scavenger together with 5 μg/mL ZVI@CMC NPs
Procedure: (§1) Cytotoxicity of the ZVI NPs was evaluated by the MTT assay using 3-(4,5-dimethylthiazol-2-yl)-2,5-diphenyltetrazolium bromide. Log-phase OSCC cells were seeded at a density of 5000 cells per well in a 96-well culture plate and incubated for 16 h. The attached cells were then incubated with a series of concentrations of ZVI NPs for 48 h. Subsequently, culture medium of the cells were replaced by fresh complete medium contained 0.5 mg/mL of MTT and the cells were incubated at 37° C. for 1 h. After removing the medium, the resulting MTT crystals were dissolved in DMSO and measured for their optical absorbance at 550 nm to determine viability of the cells.
(§2) Additionally, various cell survival assays were conducted by incubating the cells with 5 μg/mL of ZVI@CMC NPs in combination with an iron chelator (eg. 1 μM of 1, 10-phenanthroline or 1 μM of desferoxamine (DFO)), a ROS scavenger (eg. 100 μM of vitamin C, 100 μM of vitamin E, 100 μM of TEMPOL, 5 μM of mito-lEMPOL, 100 μM Trolox, 100 μM Tiron, or 500 μM NAC), a ferroptosis inhibitor (eg. 5 μM of liproxstatin and 50 μM of ferrostatin) or a ferroptosis inducer (eg. 0.05 μM of RSL-3 or 1 μM of erastin) for 48 h.

[2] = test system: ZVI refractory HSC-3, SAS and OEC-M1 R3 cells; test: Cell survival assay, ZVI@CMC NPs plus ferroptosis inducer, refractory cells; type: cell-based; details: ferroptosis inducer in combination with 5 μg/mL ZVI@CMC NPs, 48 h; FIG. 10A
Procedure: as §1, §2

ZVI refractory cells = test: Depolarized cells, ZVI@CMC NPs plus ferroptosis inducer, refractory cells; type: cell-based; details: ferroptosis inducer with ZVI@CMC NPs; FIG. 10A
ZVI refractory SAS cells = test: SAS tumor xenograft in SCID mice, tumor growth; type: in vivo; details: 20 mg/kg RSL-3 together with 25 mg/kg ZVI@CMC NPs, tail vein, every other day x4; FIGS. 10B-10D
Text: Six to eight week old male mice with severe combined immunodeficiency (SCID) were used as the hosts for OSCC tumor xenografts. 3×10^6 SAS cells were subcutaneously injected into the dorsal flank of the mice to establish tumor lesions. A visible tumor mass was normally observed 1.5 to 2 weeks after the injection. When the tumor size reached approximately 50 mm^3, the mice were randomly assigned to four groups, including a PBS control group, a RSL-3 treatment group, a ZVI@CMC NP treatment group and a ZVI@CMC NP+RSL-3 treatment group (n=4 per group). PBS solution, 20 mg/kg of RSL-3 and 25 mg/kg of ZVI@CMC NPs were individually administered to the mice through tail vein injection once every other day for four times before the final tumor size in every group was measured. The Tumor volumes were measured by a digital caliper and calculated using the formula: […].

[3] = test system: ZVI sensitive cells OEC-M1 and SCC-9; test: Cell survival assay, ZVI@CMC NPs plus co-agent, OEC-M1 and SCC-9; details: added to 5 μg/mL ZVI@CMC NPs, 48 h; FIG. 7B
Procedure: as §1, §2

[4] = test system: ZVI sensitive SCC-9 and OEC-M1 cell lines; test: Mitochondrial membrane potential (MitoTracker flow cytometry), sensitive lines; type: cell-based; details: added to ZVI@CMC NPs; FIG. 7C
Procedure: Depolarization of the ZVI NP treated cells was assessed by double staining with 50 nM of MitoTracker Green, a commercial dye for indicating total mitochondrial mass, and 100 nM of MitoTracker Deep Red, another commercial dye for indicating mitochondria membrane potential (ΔΨ), at 37° C. for 30 min, followed by analysis of red fluorescent signals under an excitation wavelength of 644 nm and an emission wavelength of 665 nm and green fluorescent signals under an excitation wavelength of 490 nm and an emission wavelength of 516 nm by a BD Canto II Flow Cytometer.

Compound: CC(=O)N[C@@H](CS)C(=O)O [NAC, N-acetylcysteine]
- effect of co-agent on cytotoxicity of ZVI@CMC NPs ([1]; cotreatment with 5 μg/mL ZVI@CMC NPs): reduce cytotoxicity

Compound: COC(=O)c1ccc([C@H]2c3[nH]c4ccccc4c3C[C@H](C(=O)OC)N2C(=O)CCl)cc1 [RSL-3, methyl (1S,3R)-2-(2-chloroacetyl)-1-(4-methoxycarbonylphenyl)-1,3,4,9-tetrahydropyrido[3,4-b]indole-3-carboxylate]
- cell viability as compared with ZVI@CMC NPs alone [2]: significantly reduced
- percentage of depolarized cells (ZVI refractory cells): dramatically increased
- tumor growth as compared to ZVI@CMC NPs or RSL-3 alone (ZVI refractory SAS cells): significantly delayed

Compound: CC1(C)CC(O)CC(C)(C)N1[O] [TEMPOL, 4-hydroxy-2,2,6,6-tetramethylpiperidin-1-oxyl]
- cell viability recovered as compared with ZVI@CMC NPs alone [1]: about 50%

Compound: O=S(=O)([O-])c1cc(O)c(O)c(S(=O)(=O)[O-])c1.[Na+].[Na+] [Tiron, disodium 4,5-dihydroxy-1,3-benzenedisulfonate]
- cell viability recovered as compared with ZVI@CMC NPs alone [1]: about 50%

Compound: Cc1c(C)c2c(c(C)c1O)CCC(C)(C(=O)O)O2 (stereo not shown) [Trolox, 6-Hydroxy-2,5,7,8-tetramethylchroman-2-carboxylic acid]
- cell viability recovered as compared with ZVI@CMC NPs alone [1]: about 50%

Compound: CCOc1ccccc1-n1c(C(C)N2CCN(C(=O)COc3ccc(Cl)cc3)CC2)nc2ccccc2c1=O (stereo not shown) [erastin, 2-[1-[4-[2-(4-chlorophenoxy)acetyl]piperazin-1-yl]ethyl]-3-(2-ethoxyphenyl)quinazolin-4-one]
- cell viability as compared with ZVI@CMC NPs alone [2]: significantly reduced
- percentage of depolarized cells (ZVI refractory cells): dramatically increased

Compound: CCOC(=O)c1ccc(NC2CCCCC2)c(N)c1 [ferrostatin]
- recovery of cell viability of ZVI@CMC NP treated cells [3]: ~50%
- percentage of depolarized cells caused by ZVI@CMC NP induced mitochondrial hyperoxidation [4]: reduce the percentage of depolarized cells

Compound: Clc1cccc(CN=C2Nc3ccccc3NC23CCNCC3)c1 [liproxstatin]
- recovery of cell viability of ZVI@CMC NP treated cells [3]: ~50%
- percentage of depolarized cells caused by ZVI@CMC NP induced mitochondrial hyperoxidation [4]: reduce the percentage of depolarized cells
